Laboratory results taken from patent US7479489B2, “Heterocyclic antiviral compounds” (Roche Palo Alto LLC, priority 2004, dated 2009).

How the values were obtained:
HCV NS5B570n-BK = target: T1, HCV NS5B570n-BK (Hepatitis C virus genotype 1b, UniProt P26663); assay: HCV NS5B RNA polymerase activity; type: biochemical, HCV BK strain
T1 construct: His tag (N); made in house; host or cells: E. coli strain M15
Procedure: The enzymatic activity of HCV NS5B570n-BK is measured as incorporation of radiolabeled nucleotide monophosphates into acid insoluble RNA products. Unincorporated radiolabel substrate is removed by filtration and scintillant is added to the washed and dried filter plate containing radiolabeled RNA product. The light emitted by the scintillant is proportional to the amount of RNA product generated by NS5B570n-BK at the endpoint of the reaction.
The N-terminally histidine tagged HCV polymerase, derived from HCV BK strain, genotype 1b (NS5B570n-BK) contains a 21 amino acid deletion at the C-terminus relative to the full-length HCV polymerase and is purified from E. coli strain M15. The construct containing the coding sequence of HCV BK strain amino acid residues 2421-2999 (GenBank accession number M58335) downstream of a […] promoter expression cassette was inserted into plasmid constructs. The plasmid constructs are transformed in E. coli and colonies are inoculated and grown overnight in 10 L of Terrific broth (Tartoff and Hobbs) supplemented with 100 μg/mL ampicillin at 37° C. Protein expression is induced by addition of 1 mM isopropyl-β-D-thiogalactopyranoside (IPTG), when optical densities reaches between 1.5 and 3.5 OD600 and the culture is then incubated for 16- to 18 h at 22° C. NS5B570n-BK is purified to homogeneity using a three step protocol including subsequent column chromatography on Ni-NTA, SP-Sepharose HP and Superdex 75 resins.
Each 50 μl enzymatic reaction contains 8:4 μg/mL polyA:oligo U16 (template:primer), 20 nM or 200 nM NS5B570n-BK enzyme, 1 μCi of tritiated UTP (Perkin Elmer catalog no. TRK412; specific activity: 30 to 60 Ci/mmol; stock solution concentration from 7.5×10^−5 M to 20.6×10^−6 M), 40 mM Tris-HCl pH 8.0, 2 to 40 mM NaCl, 4 mM DTT (dithiothreitol), 4 mM MgCl2, and 5 μl of compound serial diluted in DMSO. Reaction mixtures are assembled in MADVNOB 96-well filter plates (Millipore Co.) and incubated for 2 h at 30° C. Reactions are stopped by addition of 10% (v/v) trichloroacetic acid and incubated for 40 min at 4° C. Reactions are filtered, washed with 8 reaction volumes of 10% (v/v) trichloroacetic acetic acid, 4 reaction volumes of 70% (v/v) ethanol, air dried, and 25 μl of scintillant (Microscint 20, Perkin-Elmer) is added to each reaction well.
The amount of light emitted from the scintillant is converted to counts per minute (CPM) on a Topcount® plate reader (Perkin-Elmer, Energy Range: Low, Efficiency Mode: Normal, Count Time: 1 min, Background Subtract: none, Cross talk reduction: Off).
Data is analyzed with GraphPad® Prism® and/or Microsoft® Excel®. The reaction in the absence of enzyme is used to determine the background signal, which is subtracted from the enzymatic reactions. Positive control reactions are performed in the absence of compound, from which the background corrected activity is set as 100% polymerase activity. All data is expressed as a percentage of the positive control. The compound concentration at which the enzyme-catalyzed rate of RNA synthesis is reduced by 50% (IC50) is calculated by fitting equation (i) to
[formula] the data, where “Y” corresponds to the relative enzyme activity (in %), “% Min” is the residual relative enzymatic activity at saturating compound concentration, “% Max” is the maximal relative enzymatic activity compared to positive control, X corresponds to the compound concentration, and “S” is the Hill coefficient (or slope).
Alternatively the assay can be run as described above with the following modifications. The polyA:oligo U16 homopolymeric RNA template:primer is replaced by the heteropolymeric cIRES RNA template at concentrations of 20 nM or 200 nM. The cIRES RNA template is derived from the complementary sequence of the Internal Ribosome Entry site of the HCV genome (nucleotide 1 through 378 at the 5′-end of the negative strand of the HCV genome (EMBL database accession number AJ238799). The reaction mixture is supplemented with 1 μM ATP, CTP, and GTP […]

[1] = test system: Renilla luciferase HCV replicon cells (2209-23); assay: Renilla luciferase assay (HCV replicon); type: cell-based; conditions: 72 h; replicon level, three days incubation

T1 sequence (P26663 2421-2989): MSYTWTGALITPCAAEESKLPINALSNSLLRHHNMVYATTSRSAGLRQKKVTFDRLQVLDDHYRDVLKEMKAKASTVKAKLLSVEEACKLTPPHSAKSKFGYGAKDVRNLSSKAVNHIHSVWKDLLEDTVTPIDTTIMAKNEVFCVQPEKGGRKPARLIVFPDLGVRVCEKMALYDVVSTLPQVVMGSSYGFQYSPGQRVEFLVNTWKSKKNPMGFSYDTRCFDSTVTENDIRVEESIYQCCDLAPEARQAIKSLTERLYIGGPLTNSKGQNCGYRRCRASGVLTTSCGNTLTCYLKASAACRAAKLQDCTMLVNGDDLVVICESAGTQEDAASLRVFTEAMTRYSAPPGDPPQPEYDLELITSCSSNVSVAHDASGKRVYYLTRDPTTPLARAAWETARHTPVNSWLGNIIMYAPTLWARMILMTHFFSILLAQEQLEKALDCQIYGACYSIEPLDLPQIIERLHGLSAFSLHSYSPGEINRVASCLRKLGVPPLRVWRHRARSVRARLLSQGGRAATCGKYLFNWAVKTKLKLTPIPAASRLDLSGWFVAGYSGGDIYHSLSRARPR

`CCS(=O)(=O)Nc1ccc2c(c1)S(=O)(=O)C=C(c1c(O)c3cc(F)ccc3n(CCC3CC3)c1=O)N2` [Compound I-32, ethanesulfonic acid {3-[1-(2-cyclopropyl-ethyl)-6-fluoro-4-hydroxy-2-oxo-1,2-dihydro-quinolin-3-yl]-1,1-dioxo-1,4-dihydro-1λ6-benzo[1,4]thiazin-7-yl}-amide] showed an IC50 (HCV NS5B570n-BK; 20 nM cIRES) of 7.3 nM, an IC50 (HCV NS5B570n-BK; 200 nM polyA: oligo U16) of 220 nM and a melting point of 140 to 142 °C. For the same compound, the IC50 [1] was 5 nM.

Compound `CC(C)(C)[C@H]1C(O)=C(C2=CS(=O)(=O)c3cc(NS(C)(=O)=O)ccc3N2)C(=O)N1Cc1ccc(F)c(Cl)c1` [II-11, N-{3-[(S)-5-tert-Butyl-1-(3-chloro-4-fluoro-benzyl)-4-hydroxy-2-oxo-2,5-dihydro-1H-pyrrol-3-yl]-1,1-dioxo-1,4-dihydro-1λ^6-benzo[1,4]thiazin-7-yl}-methanesulfonamide] has an IC50 (HCV NS5B570n-BK; 20 nM cIRES) of 4.6 nM and an IC50 [1] of 9 nM.

With `NC(=O)COc1ccc2c(c1)S(=O)(=O)C=C(c1c(O)c3cc(F)ccc3n(Cc3ccc(F)cc3)c1=O)N2` [Compound I-20, 2-{3-[6-Fluoro-1-(4-fluoro-benzyl)-4-hydroxy-2-oxo-1,2-dihydro-quinolin-3-yl]-1,1-dioxo-1,4-dihydro-1λ^6-benzo[1,4]thiazin-7-yloxy}-acetamide] the IC50 (HCV NS5B570n-BK; 200 nM polyA: oligo U16) was 150 nM and the IC50 [1] was 1050 nM.

Compound `CS(=O)(=O)Nc1ccc2c(c1)S(=O)(=O)C=C(c1c(O)c3cc(F)c(F)cc3n(Cc3ccc(F)cc3)c1=O)N2` [Compound I-69, N-{3-[6,7-Difluoro-1-(4-fluoro-benzyl)-4-hydroxy-2-oxo-1,2-dihydro-quinolin-3-yl]-1,1-dioxo-1,4-dihydro-1λ^6-benzo[1,4]thiazin-7-yl}-methanesulfonamide] has an IC50 (HCV NS5B570n-BK; 20 nM cIRES) of 14.4 nM and an IC50 [1] of 15 nM.

`NS(=O)(=O)Nc1ccc2c(c1)S(=O)(=O)C=C(c1c(O)c3cc(F)ccc3n(CCC3CC3)c1=O)N2` [Compound I-40, 1-{3-[1-(2-cyclopropyl-ethyl)-6-fluoro-4-hydroxy-2-oxo-1,2-dihydro-quinolin-3-yl]-1,1-dioxo-1,4-dihydro-1λ^6-benzo[1,4]thiazin-7-yl}-sulfamide] gave an IC50 (HCV NS5B570n-BK; 200 nM polyA: oligo U16) of 350 nM, a melting point of 183 to 186 °C and an IC50 [1] of 9 nM.

Compound `CS(=O)(=O)Nc1ccc2c(c1)S(=O)(=O)C=C(c1c(O)c3cc(F)ccc3n(Cc3ccc(F)cc3)c1=O)N2` [Compound I-24, N-{3-[6-Fluoro-1-(4-fluoro-benzyl)-4-hydroxy-2-oxo-1,2-dihydro-quinolin-3-yl]-1,1-dioxo-1,4-dihydro-1λ^6-benzo[1,4]thiazin-7-yl}-methanesulfonamide] has an IC50 (HCV NS5B570n-BK; 20 nM cIRES) of 5.5 nM, an IC50 (HCV NS5B570n-BK; 200 nM cIRES) of 67 nM and an IC50 (HCV NS5B570n-BK; 200 nM polyA: oligo U16) of 151 nM. The IC50 [1] was 13 nM.
